From patent US20210186879A1, “TARGETED DELIVERY OF HYDROPHILIC DRUGS TO LUNG” (DOUBLE BOND PHARMACEUTICALS AB, priority 2016, published 2021)

Key:
[1] = cited from earlier work
[2] = In vivo distribution of doxorubicin in lung and blood serum of Wistar rats; conditions: 4 hours
Procedure: (§1) For in vivo investigation both rats and rabbits were used: female Wistar rats 60-75 days old weighing 300 g±30 g and Californian breed male rabbits 75-90 days old weighing 2000 g±250 g were selected. […] Different doxorubicin containing formulations with a total doxorubicin dose 5 mg/kg were administered via a single bolus injection into the tail for rats and via a slow flow of 1 ml/min in the marginal ear vein for rabbits.
(§2) Five or six pieces of lung tissue of a total weight of about 1 g were taken from different parts of a lung. The samples were homogenized with a solution of aqueous ethanol containing HCl for 20 s at 7000 rpm and for 10 s at 11000 rpm. […] Doxorubicin and doxycycline (DOC) concentration in the final supernatant was determined with fluorometric analysis and high-performance liquid chromatography respectively.
An aqueous solution of doxorubicin hydrochloride, an aqueous suspension of doxorubicin alkane sulfate and an aqueous suspension of doxorubicin alkyl sulfonate were administered via a single bolus injection into the tail Animals were sacrificed after 4 hours after administered via a single bolus injection into the tail; total doxorubicin dose 5 mg/kg. […] The results are summarized in Table 7 and illustrated in FIG. 10.

[3] = In vivo distribution of doxorubicin in lung and femoral muscle of Californian rabbits; conditions: 4 hours
Procedure: as §1, §2
Suspension of complexes of doxorubicin and doxorubicin hydrochloride were administered via a slow flow of 1 ml/min to rabbits in the marginal ear vein with a total doxorubicin dose 1.25 mg/kg. Animals were sacrificed after 4 hours after administration. Concentration of doxorubicin in lung and femoral muscle was determined in accordance to the procedure described above. As it is seen from table 8 the concentration of doxorubicin in femoral muscle as a representation of a system concentration is not increased for complexes compared with doxorubicin hydrochloride.

[4] = rat, in vivo, iv, 5 mg/kg
[5] = 5 mg/kg i.v. single bolus, ± SD
[6] = 1.25 mg/kg i.v. marginal ear vein, ± SD

Blood serum DOX [2, 5] [µg/kg] | Lung tissue DOX [2, 5] [µg/kg] | Blood serum Relative difference ([2]; relative to control CI-DOX (1)) | Lung tissue Relative difference ([2]; relative to control CI-DOX (1)) | Femoral muscle DOX [3, 6] [µg/kg] | Lung tissue DOX [3, 6] [µg/kg] | Femoral muscle Relative difference ([3]; relative to control CI-DOX (1)) | Lung tissue Relative difference ([3]; relative to control CI-DOX (1)) | Particle size particularly advantageous in targeting lung tissue [4] | Structure (SMILES) | Cumulative dose at which the risk of developing cardiac side effects increases dramatically [1] [mg/m^2]
 |  |  |  |  |  |  |  |  | COc1cccc2c1C(=O)c1c(O)c3c(c(O)c1C2=O)C[C@@](O)(C(=O)CO)C[C@@H]3O[C@H]1C[C@H](N)[C@H](O)[C@H](C)O1 [doxorubicin] | ≥ 550
0.023 ± 0.009 | 3.17 ± 0.33 | 1.21 | 4.46 | 0.06 ± 0.01 | 6.14 ± 0.53 | 0.26 | 7.40 | 40-90 μm | CCCCCCCCCCCCCCOS(=O)(=O)O.COc1cccc2c1C(=O)c1c(O)c3c(c(O)c1C2=O)CC(O)(C(=O)CO)CC3OC1CC(N)C(O)C(C)O1 (stereo not shown) [doxorubicin CnH2n+1OSO3^− n=14] | 
